This is an account of results in US20100115666A1, “Transcriptional Repressors of Cytokinin Signaling and Their Use” (FREIE UNIVERSITÄT BERLIN, priority 2006, published 2010).

One assay concerns detached leaves. Kind of assay: Chlorophyll retention assay in detached leaves. Format: in vivo, Arabidopsis thaliana. The following applies: wild type leaves, 0.1 μM BA, 10 d dark. As for the experimental part:
(b) Quantification of chlorophyll retention by cytokinin. […] Three independent plates with five leaves per plate were examined for each concentration. Two chlorophyll measurements were taken per plate. The chlorophyll content was determined spectrophotometrically as described in Example 3.5. Error bars represent SD (n=15). The chlorophyll retention assay was performed as described by ([…] et al., 2006). Either the sixth or the seventh leaf was detached from 24-days-old in vitro grown seedlings and floated on distilled water supplemented with 0, 0.01, 0.1, 0.5, 1.0 or 5.0 μM BA in 0.1% DMSO in small Petri dishes for 10 d at RT in the dark. Three replicates of each genotype, each consisting of five leaves were taken for measurement. Chlorophyll was extracted with methanol for 24 h in the dark. The amount of chlorophyll was measured with a spectrophotometer, normalized to fresh weight, and the chlorophyll content was calculated as described (Porra et al., 1989).

In another assay the test system is Arabidopsis seedlings. Kind of assay: Cytokinin sensitivity of roots (root elongation, lateral root formation). Format: in vivo, Arabidopsis thaliana. How it is done: ([…] plants are less sensitive to cytokinin inhibition of root elongation. Root elongation was measured for each line between 4 and 9 DAG. The root elongation of each line is expressed as percentage of its DMSO control. Results shown for each line represent means from at least three independent replicates. ([…] plants are less sensitive to cytokinin inhibition of lateral root formation. The number of lateral roots was determined 9 DAG. Error bars represent SD (n>15). Arabidopsis seeds were grown on vertical plates containing different concentration of BA ranging from 0.01 μM to 1.0 mM. 0.1% dimethyl sulfoxide (DMSO) was included as vehicle control. The primary root lengths were marked on day four and nine after germination. Photographs were taken with a digital camera (Nikon Coolpix 8800) and root lengths were determined using Scion Image program version beta 4.02 (www.scioncorp.com). The number of lateral roots emerging from the epidermis of the primary root was counted under a microscope […]. The experiments were performed using three independent replicates and 15 seedlings in each replicate. To investigate the cytokinin response in roots, seedlings of wild type and the 35[…] lines were grown on media containing increasing amounts of cytokinin. […] The relative difference in root length increased with increasing cytokinin concentrations (FIG. 7a). […]

A further assay deals with ARR6:GUS reporter gene. Nature of the assay: Protoplast transactivation assay (ARR6:GUS reporter). Format: cell-based, Arabidopsis.

Protocol for ARR6:GUS reporter gene: The ARR6:GUS reporter construct and a 35S:GUS construct without any effector plasmid were used as controls. Protoplasts were co-transfected with the ARR6:GUS reporter and an effector plasmid expressing ARR1, ARR1-SRDX or both effector plasmids simultaneously. […] Variations in transformation efficiencies were normalized by using a 35S:NAN reporter gene construct. The mean values and SD of four independent transfection assays were calculated and shown as relative GUS/NAN activity units.
Protoplast isolation and transformation was carried out according to the method described by Hwang and Sheen (Hwang and Sheen, 2001). For isolation of mesophyll protoplasts 4-5 weeks old rosette leaves were used. Transformation of protoplasts was mediated by 40% PEG solution. […] For the transactivation assays, 9 μg of the ARR6: GUS reporter plasmid and 14 μg of each effector plasmid carrying 35S:ARR1 and 35S:ARR1-SRDX were used. For normalization 3 μg of a plasmid harboring the 35S:NAN gene (Kirby and Kavanagh, 2002) was added. Both GUS and NAN enzyme assays were performed according to Kirbay and Kavanagh (Kirby and Kavanagh, 2002). The ratios of GUS and NAN activities were calculated as relative GUS/NAN activity units.

Turning to `c1ccc(CNc2ncnc3[nH]cnc23)cc1` [BA], the chlorophyll retention entry in the assay on detached leaves was “strongly increased chlorophyll retention”. For the same molecule, the “root length reduction compared to control” value with Arabidopsis seedlings (wild type plants, 1 μM BA) worked out at 75%. Also, the lateral root formation result with Arabidopsis seedlings (wild type, 0.1 μM BA) is on record as “unable to produce lateral roots”.
For the molecule `C/C(=C\CNc1ncnc2nc[nH]c12)CO` [cytokinin, trans-zeatin], in the assay with ARR6:GUS reporter gene (ARR6:GUS reporter without effector, 500 nM trans-zeatin, 16 h), the “induction of the reporter gene expression compared to the non-induced condition” value was “more than threefold induction”. In addition, the “further increase of the GUS activity on addition of cytokinin” value with ARR6:GUS reporter gene (with 35S:ARR1 effector, 500 nM trans-zeatin) was “twofold increase”.

B1: ARR1: Arabidopsis thaliana B-type response regulator ARR1 (SEQ ID NO: 12), expressed under the 35S promoter (protein, listed as Arabidopsis thaliana)
chain: MMNPSHGRGLGSAGGSSSGRNQGGGGETVVEMFPSGLRVLVVDDDPTCLMILERMLRTCLYEVTKCNRAEMALSLLRKNKHGFDIVISDVHMPDMDGFKLLEHVGLEMDLPVIMMSADDSKSVVLKGVTHGAVDYLIKPVRMEALKNIWQHVVRKRRSEWSVPEHSGSIEETGERQQQQHRGGGGGAAVSGGEDAVDDNSSSVNEGNNWRSSSRKRKDEEGEEQGDDKDEDASNLKKPRVVWSVELHQQFVAAVNQLGVEKAVPKKILELMNVPGLTRENVASHLQKYRIYLRRLGGVSQHQGNLNNSFMTGQDASFGPLSTLNGFDLQALAVTGQLPAQSLAQLQAAGLGRPAMVSKSGLPVSSIVDERSIFSFDNTKTRFGEGLGHHGQQPQQQPQMNLLHGVPTGLQQQLPMGNRMSIQQQIAAVRAGNSVQNNGMLMPLAGQQSLPRGPPPMLTSSQSSIRQPMLSNRISERSGFSGRNNIPESSRVLPTSYTNLTTQHSSSSMPYNNFQPELPVNSFPLASAPGISVPVRKATSYQEEVNSSEAGFTTPSYDMFTTRQNDWDLRNIGIAFDSHQDSESAAFSASEAYSSSSMSRHNTTVAATEHGRNHQQPPSGMVQHHQVYADGNGGSVRVKSERVATDTATMAFHEQYSNQEDLMSALLKQV
As to B1, in the assay on ARR6:GUS reporter gene (co-transfection with ARR1 under 35S promoter, absence of cytokinin), the GUS activity result was “strong increase in GUS activity”.
